The values below come from patent publication US20260022142A1, “MACROCYCLIC IMMUNOMODULATORS” (Bristol-Myers Squibb Company, priority 2022, published 2026).

Molecules are shown by their SMILES. Bridge positions count the residues as written; N and C are the ends. Square brackets hold non-standard residues; d marks the D form. Peptide text beside a SMILES is read from it. * marks the point of attachment. ξ: configuration not given here. Phe(4-COOH) = N[C@@H](Cc1ccc(C(=O)O)cc1)C(=O)O; Bip = N[C@@H](Cc1ccc(-c2ccccc2)cc1)C(=O)O; Phe(3-OMe) = COc1cccc(C[C@H](N)C(=O)O)c1; Phe(3-Me) = Cc1cccc(C[C@H](N)C(=O)O)c1; Val(3-OH) = CC(C)(O)[C@H](N)C(=O)O; 4Pal = N[C@@H](Cc1ccncc1)C(=O)O; Cha = N[C@@H](CC1CCCCC1)C(=O)O; Cit = NC(=O)NCCC[C@H](N)C(=O)O; dNMeN = CN[C@H](CC(N)=O)C(=O)O; Thr(3ξ) = CC(O)[C@H](N)C(=O)O; Phg = N[C@H](C(=O)O)c1ccccc1; Dap(Me) = CNC[C@H](N)C(=O)O; Carboxymethyl = O=C(O)C*; Orn = NCCC[C@H](N)C(=O)O; Aun = NCCCCCCCCCCC(=O)O; Dab = NCC[C@H](N)C(=O)O; Dap = NC[C@H](N)C(=O)O; AEEA = NCCOCCOCC(=O)O

T1 sequence (Q15116 25-288): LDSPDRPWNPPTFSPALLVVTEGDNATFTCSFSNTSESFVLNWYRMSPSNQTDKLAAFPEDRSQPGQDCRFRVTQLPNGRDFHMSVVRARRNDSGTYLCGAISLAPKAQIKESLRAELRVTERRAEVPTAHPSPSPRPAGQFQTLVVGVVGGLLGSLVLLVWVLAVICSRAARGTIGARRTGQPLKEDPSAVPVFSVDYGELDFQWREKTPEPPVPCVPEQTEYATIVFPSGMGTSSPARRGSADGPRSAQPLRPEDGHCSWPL

The experiment has as its target T1, PD-1/PD-L1 interaction (PE-labeled human PD-L1-Ig binding to Jurkat cell line over-expressing human PD-1) (Homo sapiens, UniProt Q15116).
T1 construct: expressed in transfected cells; host or cells: Jurkat
Nature of the experiment: Jurkat-PD-1 Cell Binding High-Content Screening Assay (CBA). The class given is cell-based. The settings on record: Jurkat cell line over-expressing human PD-1; PE-labeled PD-L1-Ig 20 nM final; read-out: Jurkat hPD1-PDL1 IC50. The method, boiled down: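 Jurkat-hPD-1 cells, DMEM/10% FCS; cpd 2 h 37° C; PE-PD-L1-Ig 20 nM final, 1 h; 4% PFA fix + Hoechst 33342, 3× dPBS wash; high-content imaging read-out.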
In general, IC50 refers to the midpoint of a concentration-inhibition curve. As for `Cc1cccc(C[C@@H]2NC(=O)[C@H](CC(=O)O)NC(=O)[C@H](Cc3ccc(OCC(=O)O)cc3)NC(=O)[C@H](C(C)O)NC(=O)CSC[C@@H](C(=O)N[C@@H](CCN)C(=O)NCCCCCCCCCCC(=O)O)NC(=O)[C@H](C(C)O)NC(=O)[C@H](C(C)C)NC(=O)[C@H](CC3CCCCC3)NC(=O)[C@H](CCN)NC(=O)[C@@H](CC(C)C)NC(=O)[C@H](CCCNC(N)=O)NC(=O)[C@H](Cc3ccc(OCC(=O)O)cc3)NC(=O)[C@H](Cc3ccc(-c4ccccc4)cc3)NC(=O)[C@H](C(C)C)NC2=O)c1` (stereo partly drawn) [Compound 3451] ({CH2CO}-[Thr(3ξ)]Y(Carboxymethyl)D[Phe(3-Me)]V[Bip]Y(Carboxymethyl)[Cit][dL][Dab][Cha]V[Thr(3ξ)]C[Dab][Aun]-OH; thioether N-14), the IC50 was found to be 18.4 nM.

Take `COc1cccc(C[C@@H]2NC(=O)[C@H](CC(=O)O)NC(=O)[C@H](Cc3ccc(OCC(=O)O)cc3)NC(=O)[C@H](CN)NC(=O)CSC[C@@H](C(=O)N[C@@H](CCN)C(=O)NCCOCCOCC(=O)NCCCCCCCCCCC(=O)O)NC(=O)[C@H](CCCN)NC(=O)[C@H](C(C)C)NC(=O)[C@H](CC3CCCCC3)NC(=O)[C@H](CCN)NC(=O)[C@@H](CC(C)C)NC(=O)[C@H](CCCN)NC(=O)[C@H](Cc3ccc(O)cc3)NC(=O)[C@H](Cc3ccc(-c4ccccc4)cc3)NC(=O)[C@H](C(C)C)NC2=O)c1` [Compound 1289] ({CH2CO}-[Dap]Y(Carboxymethyl)D[Phe(3-OMe)]V[Bip]Y[Orn][dL][Dab][Cha]V[Orn]C[Dab][AEEA][Aun]-OH; thioether N-14): the IC50 was determined as 10.9 nM.

In the case of `Cc1cccc(C[C@@H]2NC(=O)[C@H](CC(=O)O)NC(=O)[C@H](Cc3ccc(OCC(=O)O)cc3)NC(=O)[C@H](Cc3ccncc3)NC(=O)CSC[C@@H](C(=O)N[C@@H](CCN)C(=O)NCCCCCCCCCCC(=O)O)NC(=O)[C@H](CO)NC(=O)[C@H](C(C)(C)O)NC(=O)[C@H](CC3CCCCC3)NC(=O)[C@H](CCN)NC(=O)[C@@H](CC(C)C)NC(=O)[C@H](CCCN)NC(=O)[C@H](Cc3ccc(OCC(=O)O)cc3)NC(=O)[C@H](Cc3ccc(-c4ccccc4)cc3)NC(=O)[C@H](c3ccccc3)NC2=O)c1` [Compound 2191] ({CH2CO}-[4Pal]Y(Carboxymethyl)D[Phe(3-Me)][Phg][Bip]Y(Carboxymethyl)[Orn][dL][Dab][Cha][Val(3-OH)]SC[Dab][Aun]-OH; thioether N-14), the IC50 came to 20 nM.

With `CC(C)C[C@H]1NC(=O)[C@H](CCCN)NC(=O)[C@H](C(C)C)NC(=O)[C@H](Cc2ccc(-c3ccccc3)cc2)NC(=O)[C@H](C(C)C)NC(=O)[C@H](Cc2c[nH]c3ccccc23)NC(=O)[C@H](CC(=O)O)NC(=O)[C@H](Cc2ccc(C(=O)O)cc2)NC(=O)[C@H](Cc2ccc(OCC(=O)O)cc2)NC(=O)CSC[C@@H](C(=O)NCCOCCOCC(=O)NCCCCCCCCCCC(=O)O)NC(=O)[C@H](CCCCN)NC(=O)[C@H](C(C)C)NC(=O)[C@H](CC2CCCCC2)NC(=O)[C@H](CCN)NC1=O` [Compound 2563] ({CH2CO}-Y(Carboxymethyl)[Phe(4-COOH)]DWV[Bip]V[Orn][dL][Dab][Cha]VKC[AEEA][Aun]-OH; thioether N-14), the IC50 worked out at 29.3 nM.

`Cc1cccc(C[C@@H]2NC(=O)[C@H](CC(=O)O)NC(=O)[C@H](Cc3ccc(OCC(=O)O)cc3)NC(=O)[C@H](CN)NC(=O)CSC[C@@H](C(=O)N[C@@H](CCN)C(=O)NCCCCCCCCCCC(=O)O)NC(=O)[C@H]([C@@H](C)O)NC(=O)[C@H](C(C)(C)O)NC(=O)[C@H](CC3CCCCC3)NC(=O)[C@H](CCN)NC(=O)[C@@H](CC(C)C)NC(=O)[C@H](CCCN)NC(=O)[C@H](CCCNC(N)=O)NC(=O)[C@H](Cc3ccc(-c4ccccc4)cc3)NC(=O)[C@H](C(C)C)NC2=O)c1` [Compound 2153] ({CH2CO}-[Dap]Y(Carboxymethyl)D[Phe(3-Me)]V[Bip][Cit][Orn][dL][Dab][Cha][Val(3-OH)]TC[Dab][Aun]-OH; thioether N-14): the IC50 is 23.4 nM.

`CC(C)C[C@H]1NC(=O)[C@H](CCCN)NC(=O)[C@H](C(C)C)NC(=O)[C@H](Cc2ccc(-c3ccccc3)cc2)NC(=O)[C@H](C(C)C)NC(=O)[C@H](Cc2c[nH]c3ccccc23)NC(=O)[C@H](CC(=O)O)NC(=O)[C@H](Cc2ccc(OCC(=O)O)cc2)NC(=O)[C@H](CN)NC(=O)CSC[C@@H](C(=O)NCCOCCOCC(=O)N[C@H](CO)C(=O)NCCCCCCCCCCC(=O)O)NC(=O)[C@H]([C@@H](C)O)NC(=O)[C@H](C(C)C)NC(=O)[C@H](CC2CCCCC2)NC(=O)[C@H](Cc2cnc[nH]2)NC1=O` [Compound 1134] ({CH2CO}-[Dap]Y(Carboxymethyl)DWV[Bip]V[Orn][dL]H[Cha]VTC[AEEA][dS][Aun]-OH; thioether N-14): the IC50 was 28.9 nM.

On to `Cc1cccc(C[C@@H]2NC(=O)[C@H](CC(=O)O)NC(=O)[C@H](Cc3ccc(OCC(=O)O)cc3)NC(=O)[C@H](CN)NC(=O)CSC[C@@H](C(=O)N[C@@H](CCN)C(=O)NCCCCCCCCCCC(=O)O)NC(=O)[C@H]([C@@H](C)O)NC(=O)[C@H](C(C)C)NC(=O)[C@H](CC3CCCCC3)NC(=O)[C@H](CCN)NC(=O)[C@@H](CC(C)C)NC(=O)[C@H](CCCN)NC(=O)[C@H](Cc3ccc(O)cc3)NC(=O)[C@H](Cc3ccc(-c4ccccc4)cc3)NC(=O)[C@H](C(C)C)NC2=O)c1` [Compound 2717] ({CH2CO}-[Dap]Y(Carboxymethyl)D[Phe(3-Me)]V[Bip]Y[Orn][dL][Dab][Cha]VTC[Dab][Aun]-OH; thioether N-14), for which the IC50 was 17.1 nM.

For `COc1cccc(C[C@@H]2NC(=O)[C@H](CC(=O)O)NC(=O)[C@H](Cc3ccc(OCC(=O)O)cc3)NC(=O)[C@H](CN)NC(=O)CSC[C@@H](C(=O)N[C@@H](CCN)C(=O)NCCOCCOCC(=O)NCCCCCCCCCCC(=O)O)NC(=O)[C@H](CCCN)NC(=O)[C@H](C(C)C)NC(=O)[C@H](CC3CCCCC3)NC(=O)[C@H](CCN)NC(=O)[C@@H](CC(C)C)NC(=O)[C@H](CCCN)NC(=O)[C@H](Cc3ccc(O)cc3)NC(=O)[C@H](Cc3ccc(-c4ccccc4)cc3)NC(=O)[C@H](Cc3ccc(OCC(=O)O)cc3)NC2=O)c1` [Compound 1001] ({CH2CO}-[Dap]Y(Carboxymethyl)D[Phe(3-OMe)]Y(Carboxymethyl)[Bip]Y[Orn][dL][Dab][Cha]V[Orn]C[Dab][AEEA][Aun]-OH; thioether N-14), the 50% inhibitory concentration (IC50) was found to be 7.2 nM.

Turning to `Cc1cccc(C[C@@H]2NC(=O)[C@H](CC(=O)O)NC(=O)[C@H](Cc3ccc(OCC(=O)O)cc3)NC(=O)[C@H](CC(N)=O)NC(=O)CSC[C@@H](C(=O)N[C@@H](CCN)C(=O)NCCCCCCCCCCC(=O)O)NC(=O)[C@H](CO)NC(=O)[C@H](C(C)O)NC(=O)[C@H](CC3CCCCC3)NC(=O)[C@H](CCN)NC(=O)[C@@H](CC(C)C)NC(=O)[C@H](CCCN)NC(=O)[C@H](Cc3ccc(OCC(=O)O)cc3)NC(=O)[C@H](Cc3ccc(-c4ccccc4)cc3)NC(=O)[C@H](Cc3ccc(OCC(=O)O)cc3)NC2=O)c1` (stereo partly drawn) [Compound 3639] ({CH2CO}-NY(Carboxymethyl)D[Phe(3-Me)]Y(Carboxymethyl)[Bip]Y(Carboxymethyl)[Orn][dL][Dab][Cha][Thr(3ξ)]SC[Dab][Aun]-OH; thioether N-14), the IC50 worked out at 10.5 nM.

Regarding `Cc1cccc(C[C@@H]2NC(=O)[C@H](CC(=O)O)NC(=O)[C@H](Cc3ccc(OCC(=O)O)cc3)NC(=O)[C@H](CCCNC(=N)N)NC(=O)CSC[C@@H](C(=O)N[C@@H](CCN)C(=O)NCCCCCCCCCCC(=O)O)NC(=O)[C@H](C(C)O)NC(=O)[C@H](C(C)C)NC(=O)[C@H](CC3CCCCC3)NC(=O)[C@H](CCN)NC(=O)[C@@H](CC(C)C)NC(=O)[C@H](CCC(=O)O)NC(=O)[C@H](Cc3ccc(O)cc3)NC(=O)[C@H](Cc3ccc(-c4ccccc4)cc3)NC(=O)[C@H](Cc3ccc(O)cc3)NC2=O)c1` (stereo partly drawn) [Compound 3373] ({CH2CO}-RY(Carboxymethyl)D[Phe(3-Me)]Y[Bip]YE[dL][Dab][Cha]V[Thr(3ξ)]C[Dab][Aun]-OH; thioether N-14), the IC50 came to 27.4 nM.

`Cc1cccc(C[C@@H]2NC(=O)[C@H](CC(=O)O)NC(=O)[C@H](Cc3ccc(OCC(=O)O)cc3)NC(=O)[C@H](CCCNC(=N)N)NC(=O)CSC[C@@H](C(=O)N[C@@H](CCN)C(=O)NCCCCCCCCCCC(=O)O)NC(=O)[C@H](C(C)O)NC(=O)[C@H](C(C)C)NC(=O)[C@H](CC3CCCCC3)NC(=O)[C@H](CCN)NC(=O)[C@@H](CC(C)C)NC(=O)[C@H](CCCNC(N)=O)NC(=O)[C@H](CCCN)NC(=O)[C@H](Cc3ccc(-c4ccccc4)cc3)NC(=O)[C@H](C(C)C)NC2=O)c1` (stereo partly drawn) [Compound 3304] ({CH2CO}-RY(Carboxymethyl)D[Phe(3-Me)]V[Bip][Orn][Cit][dL][Dab][Cha]V[Thr(3ξ)]C[Dab][Aun]-OH; thioether N-14): the IC50 worked out at 14.2 nM.

In the case of `CC(=O)NCCCC[C@@H]1NC(=O)[C@H](C(C)C)NC(=O)[C@H](CC2CCCCC2)NC(=O)[C@H](CCN)NC(=O)[C@@H](CC(C)C)NC(=O)[C@H](CCCN)NC(=O)[C@H](C(C)C)NC(=O)[C@H](Cc2ccc(-c3ccccc3)cc2)NC(=O)[C@H](C(C)C)NC(=O)[C@H](Cc2cccc(C)c2)NC(=O)[C@H](CC(=O)O)NC(=O)[C@H](Cc2ccc(OCC(=O)O)cc2)NC(=O)[C@H](C(C)O)NC(=O)CSC[C@@H](C(=O)N(C)[C@H](CC(N)=O)C(=O)NCCCCCCCCCCC(=O)O)NC1=O` (stereo partly drawn) [Compound 3445] ({CH2CO}-[Thr(3ξ)]Y(Carboxymethyl)D[Phe(3-Me)]V[Bip]V[Orn][dL][Dab][Cha]VK(Ac)C[dNMeN][Aun]-OH; thioether N-14), the IC50 was 160 nM.

Turning to `CNC[C@@H]1NC(=O)CSC[C@@H](C(=O)N[C@@H](CCN)C(=O)NCCCCCCCCCCC(=O)O)NC(=O)[C@H](C(C)O)NC(=O)[C@H](C(C)C)NC(=O)[C@H](CC2CCCCC2)NC(=O)[C@H](CCN)NC(=O)[C@@H](CC(C)C)NC(=O)[C@H](CCCN)NC(=O)[C@H](CCCCNC(C)=O)NC(=O)[C@H](Cc2ccc(-c3ccccc3)cc2)NC(=O)[C@H](CCCCNC(C)=O)NC(=O)[C@H](Cc2cccc(C)c2)NC(=O)[C@H](CC(=O)O)NC(=O)[C@H](Cc2ccc(OCC(=O)O)cc2)NC1=O` (stereo partly drawn) [Compound 3594] ({CH2CO}-[Dap(Me)]Y(Carboxymethyl)D[Phe(3-Me)]K(Ac)[Bip]K(Ac)[Orn][dL][Dab][Cha]V[Thr(3ξ)]C[Dab][Aun]-OH; thioether N-14), the IC50 amounted to 16.2 nM.
